The structures appear in SMILES notation. Read-outs that look alike come from different tables or passages of the source.

For series [1], the system named is black soldier fly larvae. The conditions noted are these: Example 3, bean pulp/bran/grass meal 3:5:2 feed, 6-day-old larvae. Here is the method: (§1) After the feeding was terminated, the obtained larvae were screened, washed, wiped dry and weighed. The survival rate was calculated according to the number of live larvae. The larvae were subjected to starvation for 1 day, then dried and weighed. The residual feed was also dried and weighed. Thereby, bioconversion efficiency was calculated according to the following: bioconversion efficiency=dry weight of the larvae/(dry weight of the added feed−dry weight of the residual feed)×100%. Selenium content in the larva was determined after smashing the dry larvae according to “GB5009.93-2017 Determination of Selenium in Food”.
Effects of the selenium-rich bacteria solution on breeding of the selenium-rich black soldier flies were determined according to the indicators, i.e. growth performance of the larvae (survival rate, larva weight), bioconversion efficiency, and selenium content in the larva. The test method for each indicator was the same as that in Example 2.

Series [2] has as its system black soldier fly larvae. As to conditions: Example 5, bean pulp/bran/grass meal 3:5:2 feed, 6-day-old larvae. Here is the method: as §1
The effects of the selenium-rich bacteria solution on breeding of the selenium-rich black soldier flies were determined according to the indicators, i.e. growth performance of the larvae (survival rate, larva weight), bioconversion efficiency, and selenium content in the larva. Test method for each indicator was the same as that in Example 2.

The test system of series [3] is black soldier fly larvae. As to conditions: Example 2, chicken feed, 4-day-old larvae. On the procedure:
Step 3, 4-day-old black soldier fly larvae were selected to be fed; the selenium-rich bacteria solution was added to chicken feed to enable the chicken feed to have a total selenium content of 100, 200, 300 mg/kg (wet weight), respectively; a moisture content of the chicken feed was controlled to 60%, then the black soldier fly larvae were fed with the chicken feed at a ratio of dry chicken feed to larva being 116 g per 150 larvae (the ratio of dry feed to larva was 0.77) in conditions of 28° C.-30° C. feeding temperature and 60%-70% air humidity level, and feeding was terminated at the end of the fifth instar of the larvae.
The effects of the selenium-rich bacteria solution on breeding of the selenium-rich black soldier flies were determined according to the indicators, i.e. growth performance of the larvae (survival rate, larva weight), bioconversion efficiency, and selenium content in the larva.
as §1

Series [4] relates to black soldier fly larvae. As to conditions: Example 4, bean pulp/bran/grass meal 3:5:2 feed, 6-day-old larvae. Here is the method: as §1
Effects of the selenium-rich bacteria solution on breeding of the selenium-rich black soldier flies were determined according to the indicators, i.e. growth performance of the larvae (survival rate, larva weight), bioconversion efficiency, and selenium content in the larva. Test method for each indicator was the same as that in Example 2.

The mark [5] stands for this setting: selenium content added 100.00 mg/kg.
Setting [6] is: selenium content added 200.00 mg/kg.
[7] abbreviates: selenium content added 300.00 mg/kg.

Turning to `O=[Se](O)O` [sodium selenite], the Larva weight in series [1] (setting [5]) came to 179.63 ± 9.99 mg per larva; in series [1] (setting [6]), 154.41 ± 10.66 mg per larva; in series [1] (setting [7]), 119.53 ± 10.79 mg per larva; in series [2] (setting [5]), 179.95 ± 9.51 mg per larva; in series [2] (setting [6]) it was 153.34 ± 10.87 mg per larva; in series [2] (setting [7]) it was 119.64 ± 5.54 mg per larva. The Larva weight came out at 212.39 ± 9.63 mg per larva in series [3] (setting [5]); 214.37 ± 7.56 mg per larva in series [3] (setting [6]); 210.57 ± 3.50 mg per larva in series [3] (setting [7]); 183.72 ± 9.71 mg per larva in series [4] (setting [5]); 156.56 ± 11.10 mg per larva in series [4] (setting [6]); 122.15 ± 5.66 mg per larva in series [4] (setting [7]). For the same molecule, the Survival rate in series [1] (setting [5]) stood at 85.04 ± 8.77%; in series [1] (setting [6]), 84.51 ± 5.06%; in series [1] (setting [7]), 82.22 ± 8.77%; in series [2] (setting [5]), 85.33 ± 6.40%; in series [2] (setting [6]) it was 87.43 ± 3.33%; in series [2] (setting [7]), 81.46 ± 0.96%. Also, the Survival rate in series [3] (setting [6]) is 94.22 ± 1.35%; in series [3] (setting [7]) it was 91.33 ± 4.27%; in series [4] (setting [5]), 87.12 ± 6.53%; in series [4] (setting [6]) it was 89.27 ± 3.40%; in series [4] (setting [7]), 83.17 ± 0.97%.

The values above are taken from patent publication US20250221431A1, “METHOD FOR FEEDING BLACK SOLDIER FLY LARVAE WITH SELENIUM-RICH BACTERIA SOLUTION” (priority 2024, published 2025).
